Experimental data reported in patent US20240335429A1, “MOLECULAR GLUE AND SALL4 DEGRADER” (National University of Singapore, priority 2021, published 2024).

Key:
[1] = molecular target: SALL4A-Nluc in H1299 cells (Homo sapiens, UniProt Q96SW2+Q9UJQ4); conditions: 10 μM, H1299 cells overexpressing SALL4A-nanoluc
Text: (§1) SALL4A or SALL4B was cloned into the dual-luciferase plasmid (pLL3.7-EF1a-IRES-Gateway-nluc-2xHA-IRES2-fluc-hCL1-P2A-Puro from Prof. William G. Kaelin group) to create a stable cell line (H1299, SALL4 negative) that ectopically express the SALL4A or B-NanoLuc fusion protein. SALL4A or B fused to nanoluciferase (Nluc) was expressed in a multicistronic mRNA with control firefly luciferase (Fluc). The measurement of Nluc/Fluc ratio enabled the determination of SALL4 fusion protein degradation relative to the internal Fluc control, independent of effects on transcription (FIG. 1A-B).

SNU-398 cells = assay: CellTiter-Glo viability assay, SNU-398; format: cell-based, human; conditions: CellTiter-Glo
Description: Cells were plated in RPMI culture media (40 μL) in 384-well white, flat-bottom plates (Corning) and incubated at 37° C. in a humidified atmosphere of 5% CO2 overnight. The numbers of cells per well were 1,500 for SNU-398 and SNU-182, 750 for SNU-387, SNU-449, SNU-475 and SNU-423, and 1,000 for H661 and H1299. After overnight incubation, 10 μL of drug (1% DMSO in RPMI) at designed concentrations were added to the cells. The cells were then incubated for 16, 24, 48, 72, or 96 h at 37° C. in a humidified atmosphere of 5% CO2 before CellTiter-Glo reagent (10 μL) was dispensed to the wells. The cells were incubated at room temperature for a minimum of 10 min. After that, luminescence readings were recorded by a Microplate Reader (PHERAstar or Tecan Infinite M200 Pro) according to the manufacturer's instruction for measuring the luminescence.

[2] = molecular target: T1, SALL4B-Nluc in H1299 cells (Homo sapiens, UniProt Q96SW2+Q9UJQ4); assay: Dual-luciferase SALL4B reporter cellular assay (main screen), Nluc/Fluc ratio; format: cell-based; conditions: NCI-H1299, read-out: maximum degradation (Dmax) of SALL4B_Nluc
T1 construct: expressed in transfected cells
T1 sequence (Q9UJQ4 1-616 isoform Q9UJQ4-2): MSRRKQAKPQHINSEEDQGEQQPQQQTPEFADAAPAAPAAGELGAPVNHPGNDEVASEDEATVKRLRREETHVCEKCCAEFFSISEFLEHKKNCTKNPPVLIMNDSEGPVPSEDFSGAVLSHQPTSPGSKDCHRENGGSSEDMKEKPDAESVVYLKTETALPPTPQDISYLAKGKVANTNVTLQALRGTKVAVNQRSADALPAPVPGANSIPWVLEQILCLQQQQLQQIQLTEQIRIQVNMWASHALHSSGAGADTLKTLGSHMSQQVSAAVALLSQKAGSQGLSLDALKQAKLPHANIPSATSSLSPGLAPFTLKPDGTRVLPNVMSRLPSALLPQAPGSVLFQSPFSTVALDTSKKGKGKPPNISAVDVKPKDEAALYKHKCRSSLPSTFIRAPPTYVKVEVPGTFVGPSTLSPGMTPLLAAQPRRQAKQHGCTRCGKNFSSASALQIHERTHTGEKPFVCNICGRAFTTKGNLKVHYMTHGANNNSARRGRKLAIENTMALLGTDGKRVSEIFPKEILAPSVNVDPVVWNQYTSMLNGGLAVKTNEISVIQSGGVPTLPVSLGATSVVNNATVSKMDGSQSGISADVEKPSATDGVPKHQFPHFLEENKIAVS
T1 sequence (Q96SW2 whole entry): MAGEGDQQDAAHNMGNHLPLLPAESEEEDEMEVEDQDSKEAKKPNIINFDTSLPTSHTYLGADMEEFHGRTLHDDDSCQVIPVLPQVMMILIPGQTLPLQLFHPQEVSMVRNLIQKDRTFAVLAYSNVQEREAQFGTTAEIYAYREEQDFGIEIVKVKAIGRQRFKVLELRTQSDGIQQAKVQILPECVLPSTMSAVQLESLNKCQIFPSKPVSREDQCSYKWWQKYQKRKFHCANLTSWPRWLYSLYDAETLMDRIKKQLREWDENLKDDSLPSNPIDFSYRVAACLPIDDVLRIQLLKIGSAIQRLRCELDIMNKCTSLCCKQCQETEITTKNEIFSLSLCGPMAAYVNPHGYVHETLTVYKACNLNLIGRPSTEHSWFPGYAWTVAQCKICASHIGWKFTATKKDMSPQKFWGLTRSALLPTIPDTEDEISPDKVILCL
T1 sequence (Q16531 whole entry partner): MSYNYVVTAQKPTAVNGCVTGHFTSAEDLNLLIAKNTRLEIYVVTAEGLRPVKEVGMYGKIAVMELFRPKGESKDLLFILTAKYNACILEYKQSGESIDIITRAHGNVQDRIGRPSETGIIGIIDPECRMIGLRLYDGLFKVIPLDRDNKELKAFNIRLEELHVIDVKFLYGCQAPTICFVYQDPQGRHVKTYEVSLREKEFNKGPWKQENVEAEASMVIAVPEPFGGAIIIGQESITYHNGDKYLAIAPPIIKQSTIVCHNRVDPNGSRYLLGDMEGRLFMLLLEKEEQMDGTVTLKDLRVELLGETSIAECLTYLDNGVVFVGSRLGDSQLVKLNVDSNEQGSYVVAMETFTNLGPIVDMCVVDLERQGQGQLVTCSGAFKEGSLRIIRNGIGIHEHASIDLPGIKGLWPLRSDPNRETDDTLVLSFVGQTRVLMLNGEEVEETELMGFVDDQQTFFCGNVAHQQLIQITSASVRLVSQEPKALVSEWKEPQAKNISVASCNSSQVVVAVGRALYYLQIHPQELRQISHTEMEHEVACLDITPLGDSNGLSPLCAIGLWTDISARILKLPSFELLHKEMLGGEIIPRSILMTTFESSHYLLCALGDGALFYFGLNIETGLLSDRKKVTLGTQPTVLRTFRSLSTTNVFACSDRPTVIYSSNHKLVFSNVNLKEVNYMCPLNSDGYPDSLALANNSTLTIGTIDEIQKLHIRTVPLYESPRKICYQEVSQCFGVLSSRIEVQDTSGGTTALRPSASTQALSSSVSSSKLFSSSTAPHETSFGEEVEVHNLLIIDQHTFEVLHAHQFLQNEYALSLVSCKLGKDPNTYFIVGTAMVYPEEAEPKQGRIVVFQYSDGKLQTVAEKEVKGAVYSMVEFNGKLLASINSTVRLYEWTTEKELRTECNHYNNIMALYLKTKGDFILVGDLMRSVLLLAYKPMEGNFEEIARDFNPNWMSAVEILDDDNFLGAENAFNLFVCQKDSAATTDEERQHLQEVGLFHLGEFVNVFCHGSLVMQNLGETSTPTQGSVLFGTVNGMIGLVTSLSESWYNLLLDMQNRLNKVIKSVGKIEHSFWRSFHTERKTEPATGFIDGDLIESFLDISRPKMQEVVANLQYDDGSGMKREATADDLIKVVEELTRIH
Text: as §1
The assay was performed as described in Example 1 except in a 1,536-well plate which allows HTS of thermal shift hits from the primary screen, searching for SALL4 small molecule binders that can degrade the oncogenic SALL4B isoform. H1299 cells that stably express SALL4A/B_Nluc_Fluc were seeded in a 1,536-well clear bottom white plate (Corning) at 2,000 cells per well in RPMI medium (6 μL) and grown overnight (16 h) at 37° C., 5% CO2. Cells were treated with 8 μM of compounds for 6 h. Nano-Glo® Dual-Luciferase® Reporter Assay System and Pherastar plate reader were used for measuring the luciferase signal, following the manufacturer's instruction. For data analysis, the Nanoluc luminescence is normalized to firefly luciferase reading and then compared to the DMSO control. The screen was performed in triplicates.
The inventors treated H1299 cells overexpressing SALL4B_Nluc and the HCC (SNU-398, SNU-182) and NSCLC cells (H661) with increasing concentrations of QE-18-WG07 and IMiDs, and assayed the SALL4B_Nluc, as well as the endogenous SALL4A and B levels by immunoblots described in Example 4.

IKZF3 = molecular target: T2, IKZF3 (Homo sapiens, UniProt Q9UKT9); assay: Immunoblot of IKZF3 in SNU-398 HCC cells; format: cell-based; conditions: SNU-398 cells
T2 construct: with immunoblots in SNU-398 HCC cells; endogenous in cells; host or cells: SNU-398 HCC cells
T2 sequence (Q9UKT9 whole entry): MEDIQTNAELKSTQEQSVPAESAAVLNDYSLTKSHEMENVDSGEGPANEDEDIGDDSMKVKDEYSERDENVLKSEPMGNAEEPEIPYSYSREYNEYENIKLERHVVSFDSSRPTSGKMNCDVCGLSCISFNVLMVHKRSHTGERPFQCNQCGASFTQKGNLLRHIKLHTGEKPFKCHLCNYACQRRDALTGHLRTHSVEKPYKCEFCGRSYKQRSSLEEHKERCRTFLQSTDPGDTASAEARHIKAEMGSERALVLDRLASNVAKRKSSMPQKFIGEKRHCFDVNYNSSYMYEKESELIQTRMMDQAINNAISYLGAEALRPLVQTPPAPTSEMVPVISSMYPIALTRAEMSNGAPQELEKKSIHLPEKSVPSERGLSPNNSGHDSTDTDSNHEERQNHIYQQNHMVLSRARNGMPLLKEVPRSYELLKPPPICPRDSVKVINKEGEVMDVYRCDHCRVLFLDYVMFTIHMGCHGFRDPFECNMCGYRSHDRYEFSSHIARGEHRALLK
Description: (§2) RIPA buffer containing freshly added protease inhibitors (2 mM PMSF) and protease inhibitor cocktail was used for cell lysis. The lysed cells were incubated for 10 min on ice and subsequently centrifuged at 4° C. for 10 min at 14,000 rpm. The protein concentrations of cell lysates were assessed using Bradford Assay as per manufacturer's instructions. The samples were denatured using 4× Sample buffer at 95° C. for 5 min. The samples were size resolved using polyacrylamide gel (8%) and Mini-PROTEAN Tetra Cell module. The size-resolved proteins were transferred onto PVDF via electroblotting using Mini Trans-Blot® module. The membrane was blocked using 5% BSA in TBST. The membrane was incubated with appropriate primary antibody (overnight) and secondary antibody (1 h). Immobilon Crescendo Western HRP substrate was used for signal development and images were acquired using darkroom development techniques.

IKZF1 = molecular target: T3, IKZF1 (Homo sapiens, UniProt Q13422); assay: Immunoblot of IKZF1 in SNU-398 HCC cells; format: cell-based; conditions: SNU-398 cells
T3 construct: with immunoblots in SNU-398 HCC cells; endogenous in cells; host or cells: SNU-398 HCC cells
T3 sequence (Q13422 whole entry): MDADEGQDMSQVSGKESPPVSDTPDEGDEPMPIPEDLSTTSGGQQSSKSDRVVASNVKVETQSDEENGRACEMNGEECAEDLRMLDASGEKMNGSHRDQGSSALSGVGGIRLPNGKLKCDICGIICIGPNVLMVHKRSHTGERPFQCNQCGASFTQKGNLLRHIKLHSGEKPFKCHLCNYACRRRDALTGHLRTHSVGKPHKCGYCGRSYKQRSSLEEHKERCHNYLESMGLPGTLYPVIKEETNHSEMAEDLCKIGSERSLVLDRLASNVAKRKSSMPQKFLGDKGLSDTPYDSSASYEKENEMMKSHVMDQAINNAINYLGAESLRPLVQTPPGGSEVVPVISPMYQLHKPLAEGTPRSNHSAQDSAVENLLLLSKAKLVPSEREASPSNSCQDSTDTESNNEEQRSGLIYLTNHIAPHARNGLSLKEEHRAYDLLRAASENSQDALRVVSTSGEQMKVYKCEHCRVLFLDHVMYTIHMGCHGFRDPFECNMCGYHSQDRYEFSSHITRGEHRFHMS
Description: as §2

cleaved PARP = assay: Immunoblot of cleaved PARP (apoptotic marker) in SNU-398 cells; format: cell-based, human; conditions: SNU-398 HCC cells, 24 h
Description: as §2

c-myc = assay: Immunoblot of c-myc (SALL4 downstream target) in SNU-398 cells; format: cell-based, human; conditions: SNU-398 HCC cells, 24 h
Description: as §2

SALL4A-Nluc in H1299 cells, sequence (Q96SW2 whole entry, the tested form may be a part): as the sequence (Q96SW2 whole entry) above
SALL4A-Nluc in H1299 cells, sequence (Q16531 whole entry, further chain, the tested form may be a part): as the sequence (Q16531 whole entry partner) above
SALL4A-Nluc in H1299 cells, sequence (Q9UJQ4 whole entry, the tested form may be a part): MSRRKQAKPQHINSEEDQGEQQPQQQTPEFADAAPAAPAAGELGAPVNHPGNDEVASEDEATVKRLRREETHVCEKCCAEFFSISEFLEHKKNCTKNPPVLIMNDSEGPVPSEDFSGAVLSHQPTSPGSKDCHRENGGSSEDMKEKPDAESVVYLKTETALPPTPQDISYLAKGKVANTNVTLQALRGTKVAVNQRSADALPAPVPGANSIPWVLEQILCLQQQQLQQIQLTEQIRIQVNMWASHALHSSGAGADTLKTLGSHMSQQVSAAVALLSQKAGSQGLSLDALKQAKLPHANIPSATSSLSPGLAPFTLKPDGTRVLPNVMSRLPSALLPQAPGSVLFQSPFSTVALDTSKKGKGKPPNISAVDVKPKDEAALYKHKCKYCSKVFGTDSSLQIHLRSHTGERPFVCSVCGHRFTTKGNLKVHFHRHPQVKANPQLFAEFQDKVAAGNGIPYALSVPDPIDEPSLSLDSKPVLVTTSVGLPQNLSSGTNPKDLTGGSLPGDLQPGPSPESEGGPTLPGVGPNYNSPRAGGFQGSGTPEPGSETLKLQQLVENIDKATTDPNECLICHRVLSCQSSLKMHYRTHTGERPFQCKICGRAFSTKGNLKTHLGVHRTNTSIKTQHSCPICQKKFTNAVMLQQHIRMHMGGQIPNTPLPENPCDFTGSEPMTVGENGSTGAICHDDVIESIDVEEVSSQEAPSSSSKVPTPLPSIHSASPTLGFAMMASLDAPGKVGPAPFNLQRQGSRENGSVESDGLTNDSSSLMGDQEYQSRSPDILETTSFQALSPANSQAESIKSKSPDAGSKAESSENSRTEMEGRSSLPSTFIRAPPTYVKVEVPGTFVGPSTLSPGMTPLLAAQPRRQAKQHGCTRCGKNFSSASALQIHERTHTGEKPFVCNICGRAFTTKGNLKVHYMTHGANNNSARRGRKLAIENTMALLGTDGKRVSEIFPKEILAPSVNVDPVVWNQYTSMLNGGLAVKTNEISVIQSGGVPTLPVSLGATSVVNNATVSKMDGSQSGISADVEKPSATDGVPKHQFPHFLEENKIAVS

SMILES: Nc1cccc2c1C(=O)N(C1CCC(=O)NC1=O)C2=O (stereo not drawn) [Pomalidomide, reference compound]
- time at which inhibition of SALL4A-Nluc signal became saturated [1]: 8 h
- effect on SNU-398 cell growth (SNU-398 cells): did not result in any antiproliferative consequences
- Dmax [2]: 17%

SMILES: O=C1CCC(N2C(=O)c3ccccc3C2=O)C(=O)N1 (stereo not drawn) [Thalidomide, reference compound]
- Dmax (IKZF3): 39%
- effect on SNU-398 cell growth (SNU-398 cells): did not result in any antiproliferative consequences
- Dmax (IKZF1): 64%
- cleavage of PARP (apoptosis induction) (cleaved PARP): no cleavage of PARP observed
- Dmax [2]: 17%
- effect on the level of c-myc (c-myc): did not affect
